Data published in patent publication US8187635B2, “Pharmaceutical composition containing a pyrrolidone anticonvulsant agent and method for the preparation thereof” (Pharmathen S.A, priority 2007, dated 2012).
Like-named read-outs stand apart in the source and are kept apart here.

Tests used:
[1] = cited from earlier work
[2] = cited from earlier work; remark: listed apart in the source
[3] = Compatibility of Levetiracetam with excipients (impurity profile); assay type: physicochemical
Protocol: Levetiracetam was tested for its compatibility with several pharmaceutically acceptable excipients comprising the above mentioned properties.

impurity profile of the active ingredient with excipient ([3]; with PVP): not acceptable | impurity profile of the active ingredient with excipient ([3]; with sodium starch glycolate (Primojel)): not acceptable
Compound: CC[C@@H](C(N)=O)N1CCCC1=O [Levetiracetam, S-enantiomer of α-ethyl-2-oxo-1-pyrrolidine acetamide]
bioavailability [1]: 100% | protein binding [1]: lack of protein binding | solubility ([2]; in acetonitrile): sparingly soluble | solubility ([2]; in chloroform): freely soluble | solubility ([2]; in methanol): freely soluble | solubility ([2]; in n-hexane): practically insoluble | solubility ([2]; in water): very soluble
